In US5880076A, “Compositions comprising glycacarbamate and glycaurea compounds” (Lever Brothers Company, Division of Conopco, Inc., priority 1997, dated 1999):

Tests used:
[1] = Critical Micelle Concentration (micelle formation); type: physicochemical; conditions: 40° C.
Excerpt: The critical micelle concentration (CMC) is defined as the concentration at which a surfactant forms micelles in aqueous solution. […] A necessary and sufficient condition for CMC formation and surface tension reduction is the presence of both hydrophilic and hydrophobic functional groups. The hydrophilic portion provides strong interaction between the surfactant at the interface and with the surrounding water phase. The hydrophobic portion provides spontaneous adsorption of the surfactant at the interface and strong interaction with the adjacent air phase. If any of these functions are not performed, then CMC formation and surface tension reduction will not occur. For significant surface activity, a properly balanced hydrophilic and hydrophobic character is essential.

[2] = Surface Tension Reduction; type: physicochemical; conditions: 40° C.
Excerpt: An important characteristic feature that surfactants have is the tendency for them to absorb at the water/air interface in an oriented manner, thereby altering the interfacial free energy of that surface. The surface free energy per unit area or surface tension (γ), is a measure of this work and may be considered as the minimum amount of work required to bring sufficient surfactant molecules to the surface.

[3] = Viscosity Modification of Sodium Lauryl Sulfate prototype detergent compositions; type: physicochemical; conditions: for Appearance (viscosity) / Viscosity Increase: 15.0% sodium lauryl sulfate; for Viscosity Increase: 22° C.
Protocol: The prototype detergent compositions are as follows:
(§1) Detergent Compositions Comprising Sodium
(§2) Lauryl Sulfate and Glycacarbamate Compounds
N-Dodecyl D-Glucocarbamate
2.0-7.0% Foam Stabilizer/Thickener
2.0% Viscosity Cobuilder
(§3) Lauryl Sulfate and Glycaurea Compounds
(§4) The above formulations were prepared by admixing the above ingredients in listed order and heating the mixture to about 80° C. with rapid stirring. The mixture was then cooled to about 40° C., placed in a clear jar and stored at room temperature.
It is well known that the viscosity of a liquid composition comprision of anionic surfactant can be modified by the addition of inorganic salts, such as sodium chloride. However, in the absence of an organic modifier, high levels of salt may be necessary to achieve the required viscosity which may lead to problems of storage at cold temperature or even salting our certain ingrediets. In practice, however, the viscosity of a liquid compositionis modified by the simultaneous addition of thickener and small amounts of inorganic salt (viscosity cobuilder). The combined effect is greater than either one alone. The viscosity of the above prototype detergent compositions comprising various amounts of glycacarbamate/urea compound are as follows: […]

[4] = Clarity Enhancement of prototype detergent compositions; type: physicochemical; conditions: detergent formulation
Protocol: The formulations were placed in a clear jar and stored for 1 month. The prototype detergent compositions are as follows:
as §1, §2
N-Coconut D-Glucocarbamate
0.5-4.0% Foam Stabilizer/Thickener
as §3, §4
For a clear detergent formulation to be successful it must have good shelf life and should not become turbid or produce sedimentation upon standing.

[5] = Flow aids: water uptake and appearance of intimate admixtures; type: physicochemical; conditions: intimate admixtures with ODS, SCMOS, CP-5 or CP-7
Excerpt: It is known in the are that certain ingredients are hygroscopic in nature and liquify after exposure to moisture after a few days. […] Samples were removed periodically, weighed and returned to R. H. chamber. Percent water uptake was based on the amound of builder present. % H2 O Uptake=grams of water absorbed/grams of builder×100 Identical mixtures of ODS, SCMOS, CP-5 or CP-7 and methyl α-D-glucose-6-O-monolaurate (c12 Mgluc), dodecyl β-D-glucopyranoside (C12 Gluc), dodecyl β-D-maltoside (C12 Malt), D-glucose or D-sorbitol were also prepared and are used for comparison. When the comparative sugar surfactant of monosacchardie are used, percent water uptake was based on the amount of saccharide present. % H2 O Uptake=grams of water absorbed/grams of saccharide×100

[6] = Water Solubility and Krafft Point (0.1% solution in water, 40° C.); conditions: 40° C.
Excerpt: The temperature at which a surfactant forms micelles instead of precipitates is referred to as the Krafft point (Tk), and at or below this temperature the solubility of a surfactant becomes equal to its CMC (numerical value at which micelles are formed).

[7] = Viscosity Enhancement/Foam Stabilization (Brookfield Digital Viscometer)

CMC at 40° C. (micelle formation) [1]: Yes
CMC at 40° C. (micelle formation) ([1]; listed as M): do not form micelles
Surface tension reduction (γ) at 40° C. [2]: Yes
Appearance (viscosity) ([3]; 2.0% thickener): Slightly Viscous
Viscosity Increase ([3]; 2.0% thickener): Yes
Appearance (viscosity) ([3]; 4.0% thickener): Viscous
Viscosity Increase ([3]; 4.0% thickener): Yes
Appearance (viscosity) ([3]; 7.0% thickener): Very Viscous
Viscosity Increase ([3]; 7.0% thickener): Yes
clarity (in words) [4]: clear without sedimentation
H2O Solubility at 40° C. [6]: Yes
Krafft point (Tk) [6]: Below Tk
H2O Solubility at 40° C. ([6]; listed as M): insoluble in water
Foam Stability ([7]; 4.0% thickener): Yes
viscosity increase from normal viscosity ([7]; 4.0% thickener): 99-104 times
Viscosity (Centipoise) ([7]; 4.0% thickener, 22° C.): 2295 Centipoise
Foam Stability ([7]; 4.0% thickener, listed as N-dodecyl D-glucourea): stabilize foam
Structure (SMILES): CCCCCCCCCCCCN(C[C@H](O)[C@@H](O)[C@H](O)[C@H](O)CO)C(N)=O [N-Dodecyl D-Glucourea]
Surface tension reduction (γ) at 40° C. ([2]; listed as M): do not significantly reduce the surface tension of water
viscosity increase (in words) ([3]; compared with D-glucose): increases the viscosity of that composition more effectively than D-glucose
handling and flowing characteristics (in words) [5]: improved the handling and flowing characteristics
viscosity enhancement and foam stabilization (comparison in words) ([7]; compared with lauramide DEA, cocoamide MEA, Neodol 91-6 and D-glucose): enhance viscosity and stabilze foam compartively to lauramide diethanolamine (DEA), but better than cocoamide menoethanolamine (MEA), Neodol 91-6 (C9 -C11 alcohol ethoxylate with 6 moles of ethylene oxide) and D-glucose
